Assays:
D(4) dopamine receptor = molecular target: T1, D(4) dopamine receptor (Homo sapiens, UniProt P21917); assay: biochemical
T1 sequence (P21917 whole entry): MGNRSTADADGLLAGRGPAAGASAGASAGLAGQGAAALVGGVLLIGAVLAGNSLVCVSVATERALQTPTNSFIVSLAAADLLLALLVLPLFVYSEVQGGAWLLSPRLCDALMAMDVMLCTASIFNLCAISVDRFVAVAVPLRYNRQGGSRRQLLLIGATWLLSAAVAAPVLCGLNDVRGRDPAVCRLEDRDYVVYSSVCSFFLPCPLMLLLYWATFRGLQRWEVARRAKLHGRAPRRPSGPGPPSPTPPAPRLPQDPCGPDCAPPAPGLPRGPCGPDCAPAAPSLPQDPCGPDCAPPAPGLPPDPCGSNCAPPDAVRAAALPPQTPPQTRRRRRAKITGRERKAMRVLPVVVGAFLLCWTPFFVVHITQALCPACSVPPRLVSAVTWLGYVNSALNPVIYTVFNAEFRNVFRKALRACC
Description: Binding affinity to recombinant human dopamine receptor D4 expressed in CHO cells by displacement of [3H]spiperone

D(3) dopamine receptor = D(3) dopamine receptor (Homo sapiens, UniProt P35462); assay: biochemical
Chain of D(3) dopamine receptor (P35462 whole entry): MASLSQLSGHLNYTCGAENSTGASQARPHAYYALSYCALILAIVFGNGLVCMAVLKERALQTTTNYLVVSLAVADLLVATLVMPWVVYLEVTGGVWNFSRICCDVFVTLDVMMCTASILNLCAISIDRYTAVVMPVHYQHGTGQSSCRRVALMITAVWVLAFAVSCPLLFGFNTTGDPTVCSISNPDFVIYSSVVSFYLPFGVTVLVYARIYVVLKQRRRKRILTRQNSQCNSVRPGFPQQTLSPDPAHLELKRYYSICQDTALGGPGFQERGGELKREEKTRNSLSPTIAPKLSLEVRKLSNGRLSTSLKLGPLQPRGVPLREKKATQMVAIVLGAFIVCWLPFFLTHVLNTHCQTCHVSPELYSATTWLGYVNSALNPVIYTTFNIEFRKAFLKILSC
Description: Binding affinity against cloned human dopamine receptor D3 expressed in Chinese hamster ovary (CHO) K-1 cells by displacement of [3H]spiperone.

SMILES	Ki (D(4) dopamine receptor) [nM]	Ki (D(3) dopamine receptor) [nM]
Clc1ccc(OCCNCCCOc2ccc(Br)cc2)cc1	38	–
Cc1cccc(OCCNCCCOc2ccccc2)c1	0.46	–
COc1ccc(OCCNCCCOc2ccccc2)cc1	5.4	369
Cc1ccc(SCCNCCCOc2ccccc2)cc1	30	–
Cc1ccccc1OCCNCCCOc1ccccc1	74	–
c1ccc(OCCCNCCOc2ccccc2)cc1	2	136
Cc1ccc(OCCNCCCOc2ccccc2)cc1	0.52	169
Clc1cccc(OCCNCCCOc2ccccc2)c1	0.31	–
Fc1ccc(OCCCNCCOc2ccc(Cl)cc2)cc1	0.84	98
Cc1ccc(OCCNCCCOc2ccccc2)cc1C	0.35	73
c1ccc(CCCNCCCOc2ccccc2)cc1	3.3	17
Clc1ccc(SCCNCCCOc2ccccc2)cc1	33	–
Cc1ccc(OCCCNCCOc2ccc(C)cc2)cc1	11	235
Cc1ccc(OCCNCCCSc2ccccc2)cc1	0.8	56
O=C(O)c1ccc(OCCNCCCOc2ccccc2)cc1	> 1000	–
Cc1ccc(OCCCNCCOc2ccccc2)cc1	2.7	–
Cc1ccc(OCCNCCCOc2ccc(F)cc2)cc1	0.96	232
Clc1ccccc1OCCNCCCOc1ccccc1	4.4	17
Cc1ccc(OCCCNCCOc2ccc(Cl)cc2)cc1	5.6	177
Cc1ccc(OCCNCCCOc2ccccc2)cc1Cl	0.52	3.9
O=[N+]([O-])c1ccc(OCCNCCCOc2ccccc2)cc1	4.4	345
Oc1ccc(OCCNCCCOc2ccccc2)cc1	3.1	236
Cc1ccc(OCCNCCCOc2ccccc2C)cc1	1.1	381
Cc1ccc(CCCNCCCOc2ccccc2)cc1	4.7	–
Clc1ccc(OCCNCCCSc2ccccc2)cc1	1.4	95
Cc1ccc(OCCNCCCOc2ccc(Br)cc2)cc1	27	1700
Cc1ccc(OCCNCCCOc2cccc(C)c2)cc1	1.2	192

Source: ChEMBL document CHEMBL1130257, “(Aryloxy)alkylamines as selective human dopamine D4 receptor antagonists: potential antipsychotic agents” (J Med Chem, 1997)
